# Reference: ChEMBL document CHEMBL3507680, “University of Dundee, Gates Library screen for HepG2 cell viability”
# Experiment: Human HepG2 cell viability assay in 384 well format
# Assay type: toxicity, cell-based
# Parameters: dose 125 nL, time 70.5 hour; concentration not given beside the values
# Settings: HepG2 cells, read-out: Inhibition
row,SMILES,cytotoxicity at 70.5 h [%]
1,CCOc1ccc(C(=O)N2CCCC2c2c(C)nn(C)c2OC)cn1 (configuration not stated),-4.47
2,CS(=O)(=O)N1CCC(NC(=O)COc2ccc(Br)cc2Cl)CC1,30.2
3,CC(C)C(C)NC(=O)Nc1ccc(F)c(C(N)=O)c1 (configuration not stated),-3.91
4,CCOc1ncccc1C(=O)NC1CCCN(c2ncccn2)C1 (configuration not stated),1.87
5,CC(CNC(=O)c1ccc(=O)[nH]n1)N1CCc2ccccc21 (configuration not stated),2.77
6,CS(=O)(=O)N1CCC(NC(=O)COc2ccc(Cl)cc2)CC1,-4.42
7,COc1cccc(CNCc2ccc(NC(=O)NC(C)C)cc2)c1,7.1
8,Cc1cccc(CNCc2ccc(NC(=O)NC(C)C)cc2)c1,2.57
9,CCOc1cccc(CNCc2ccc(NC(=O)NC(C)C)cc2)c1,4.86
10,COC(=O)c1cccn1C1CCN(Cc2nc3ccccc3o2)CC1,-3.04
11,CN(Cc1ccc(F)cc1)C(=O)CN1CCOC(Cn2cccn2)C1 (configuration not stated),0.224
12,CN(Cc1ccco1)C(=O)CN1CCOC(Cn2cccn2)C1 (configuration not stated),-1.5
13,CC(C)CCOCCNC(=O)Nc1ccc(F)c(C(N)=O)c1,-1.3
14,O=S(=O)(CCNC1CCc2ncnn2C1)c1ccc(Cl)cc1 (configuration not stated),-1.07
15,O=S(=O)(CCCN1CCCC(Cn2cncn2)C1)c1ccccc1 (configuration not stated),4.82
16,O=C(c1cc(Cl)ccc1F)N1CCCC1Cn1cccn1 (configuration not stated),22.7
17,Cc1cnn(CC2CCCN2C(=O)c2ccc(F)c(F)c2)c1 (configuration not stated),-0.479
18,COC(=O)c1cccn1C1CCN(Cc2cnc3ccccn23)CC1,10.2
19,COc1cccc(OCC(=O)NS(=O)(=O)c2ccc(Br)s2)c1,0.256
20,CCc1n[nH]c(C2CN(C(=O)Cc3cccs3)CCO2)n1 (configuration not stated),25.1
21,CC(=O)N(Cc1noc(C)n1)C1CCN(Cc2cccc(C#N)c2)C1 (configuration not stated),30.1
22,Cc1csc(C2CCCCN2C(=O)CN(C)C(C)C)n1 (configuration not stated),25.2
23,CC(C)(C)c1ncc(CNCC2CCCN2c2cccnn2)s1 (configuration not stated),5.55
24,CCN(CC)CC(=O)N1CCCCC1c1nc(C)cs1 (configuration not stated),-2.06

row,SMILES,cytotoxicity at 70.5 h [%]
1,CSc1ccc(C)c(C(=O)N2CCCC(n3cncn3)C2)c1 (configuration not stated),-2.61
2,OCC1CCCN1c1cc(NCc2cccs2)ncn1 (configuration not stated),17.3
3,FC(F)CN1CCOC(Cn2cccn2)C1 (configuration not stated),-3.37
4,COc1ccc(C(C)NC(=O)Cn2ccc(=O)n(C)c2=O)cc1F (configuration not stated),-2.29
5,CC(NC(=O)Cn1ccc(=O)n(C)c1=O)c1cc(F)ccc1F (configuration not stated),-1.78
6,CN(C)c1cc(CNC(=O)Nc2nccs2)ccn1,-1.57
7,COc1cc(CNC(=O)Nc2nnc(C(C)C)s2)ccn1,1.23
8,CN(C)c1cc(CNC(=O)Nc2nnc(C3CC3)s2)ccn1,1.07
9,CN(C)c1cc(CNC(=O)Nc2nncs2)ccn1,-0.639
10,Cc1nn(C)c(N(C)C)c1CNCc1ccc(C(=O)N(C)C)cc1,4.69
11,O=C(Cc1cn2ccccc2n1)N1CCCC(n2cccn2)C1 (configuration not stated),23.8
12,Cc1cc(C)n(C2CCCN(C(=O)c3cc(C(N)=O)cs3)C2)n1 (configuration not stated),0.983
13,Cc1cc(C(=O)N2CCCC(n3ccnc3)C2)c(C)n1C1CC1 (configuration not stated),1.06
14,Cc1nn(C)c(C)c1C1CCCN1Cc1nc(N)c2ccccc2n1 (configuration not stated),-2.07
15,Cc1nn(C)c(C)c1C1CCCN1Cc1nc2ccccc2c(=O)[nH]1 (configuration not stated),-0.414
16,Cc1ccc(S(C)(=O)=O)cc1C(=O)N1CCCC(n2cncn2)C1 (configuration not stated),-3.44
17,COc1ccc(C)cc1C(=O)N1CCCC(n2cncn2)C1 (configuration not stated),-3.25
18,CC(C)c1n[nH]c(C2CN(CCc3cccs3)CCO2)n1 (configuration not stated),-6.41
19,CC(=O)N(Cc1ncc(C)o1)C1CCN(Cc2ccccc2C#N)C1 (configuration not stated),-3.02
20,Cc1nn(C)c(C)c1C1CCCN1Cc1nc2ccccc2n1C (configuration not stated),0.883
21,Cc1nccc(CNc2cc(N3CCCC3CO)ncn2)n1 (configuration not stated),2.68
22,Cc1cnn(CC2CCCN2Cc2nccn2CC(F)(F)F)c1 (configuration not stated),0.0433
23,CCN1CCC(NC(=O)CN2CCc3c(ncn3C3CC3)C2)CC1,-9.11
24,Cc1ccc(N2CCCC(NCc3c(C)noc3C)C2)nn1 (configuration not stated),-8.52

row,SMILES,cytotoxicity at 70.5 h [%]
1,Cc1ccc(S(=O)(=O)NCc2cccc(C(=O)N3CCCC3)c2)cc1F,-7.96
2,Cn1ccc(CN2CCC(CN3CCOCC3)CC2)cc1=O,-7.39
3,O=C(c1cn(-c2ccc(F)cc2)nn1)N1CCCC(n2cccn2)C1 (configuration not stated),-1.26
4,CCN(CC)C(=O)NCCc1ccn(-c2ccccc2)n1,11
5,CCc1nc(CN2CCN(C(C)c3nc(C4CC4)no3)CC2)no1 (configuration not stated),-10.3
6,CC(C)(C)C(=O)NCCC(=O)NCCc1ccn(-c2ccccc2)n1,-4.33
7,O=C(CN1CCc2c(ncn2C2CC2)C1)NC1CCN(C2CC2)CC1,16.5
8,Cc1cc(C)n(C2CCCN(C(=O)CCOc3cccc(F)c3)C2)n1 (configuration not stated),-2.12
9,CCn1ccnc1CN1CCCN(C(=O)c2cnc(C)cn2)CC1,-5.42
10,CC(C)c1noc(C(C)N2CCN(Cc3noc(C(C)(C)C)n3)CC2)n1 (configuration not stated),-3.35
11,Cn1ccc(CN2CCN(CC3CC3)CC2)cc1=O,21.6
12,Cc1cnn(CC2CCCN2Cc2nnc(C3CC3)n2C)c1 (configuration not stated),-8.67
13,CC(C)c1nc(C2CCCN(C(=O)c3nccn4ccnc34)C2)no1 (configuration not stated),-7.38
14,CCn1ccnc1CN1CCCN(C(=O)Cc2ccccc2C)CC1,-1.08
15,CC(c1nc(C2CC2)no1)N1CCN(Cc2noc(C3CC3)n2)CC1 (configuration not stated),-2.08
16,O=C(CCOCC(F)(F)F)N1CCCC(n2ccnc2)C1 (configuration not stated),-6.65
17,CCc1n[nH]c(C2CN(C(=O)c3cscn3)CCO2)n1 (configuration not stated),43
18,O=C(NCc1ccc(-n2cncn2)nc1)c1ccc2c(c1)CCO2,-10.1
19,CC(NC(=O)Nc1cccnc1N1CCCC1)c1nncn1C (configuration not stated),-13.7
20,O=C(NCc1ccc(-n2cncn2)nc1)c1ccoc1,22.2
21,CC(NC(=O)COc1ccc(F)cc1)c1nnc2n1CCCCC2 (configuration not stated),-4
22,CN1CCC(C(=O)NCc2nncn2-c2ccccc2)CC1=O (configuration not stated),-16.9
23,Cc1nn(C)c(C)c1C1CCCN1CC(=O)NC(C1CC1)C1CC1 (configuration not stated),-2.06
24,CCCn1[nH]cc/c1=N\C(=O)CN1CCCC1c1c(C)nn(C)c1C (configuration not stated),16.9

row,SMILES,cytotoxicity at 70.5 h [%]
1,Cc1nc(C)n(C2CCCN(C(=O)c3cnc[nH]3)C2)n1 (configuration not stated),-7.11
2,CC(C)c1nc(C2CCCN2CCCc2nc3ccccc3o2)no1 (configuration not stated),-12.9
3,Cc1cccc(CCC(=O)N2CCCC(c3cc(C(N)=O)[nH]n3)C2)c1 (configuration not stated),19
4,Cc1cnn(CCNCc2nnc(C3CC3)o2)c1,11.6
5,O=C(NCC(=O)N1CCc2ccccc2C1)c1ccoc1,10.2
6,CN(C)c1ccc(NC(=O)NCc2ccccn2)cn1,-13.6
7,Cc1ccc(F)cc1S(=O)(=O)NCc1cccnc1N(C)C,-10.3
8,COc1cc(C)c(S(=O)(=O)NCc2cccnc2N(C)C)c(C)c1,-5.54
9,O=C(NCCn1ccnc1)N1CCN(c2nccs2)CC1,16.8
10,CCC1CN(C(=O)NCCOc2ccc3c(c2)OCO3)CCO1 (configuration not stated),-19.8
11,Cn1ccc(C(=O)NCc2cccc(N3CCCCC3=O)c2)cc1=O,-4.99
12,COCCN1CCCN(C(=O)NC(C)Cn2cccn2)CC1 (configuration not stated),-14.2
13,Cc1noc(C(C)C)c1C(=O)NCCCN1CCCC1,-6.55
14,O=C(c1ccc(F)cc1Cl)N1CCC(Nc2cccnn2)CC1,-7.6
15,Cn1cc(CC(=O)N2CCC(Nc3cccnn3)CC2)c2ccccc21,-4.98
16,CCn1nc2c(cc1=O)CN(CC(=O)Nc1nc(C)c(C)s1)CC2,-13.9
17,CCCn1nc2c(cc1=O)CN(CC(=O)Nc1ccncc1)CC2,-17.2
18,CCc1n[nH]c(C2CN(C(=O)c3nc(C)n4ccccc34)CCO2)n1 (configuration not stated),-20.1
19,CC(NC(=O)CCn1cncn1)c1nnc2n1CCCCC2 (configuration not stated),-13.5
20,CCN1CCN(CC(C)(O)c2cccc(C(F)(F)F)c2)CC1 (configuration not stated),-10.9
21,CCc1n[nH]c(C2CN(C(=O)c3nc(C)ncc3Cl)CCO2)n1 (configuration not stated),-7.75
22,c1ccc(-n2ncc(CN3CCCC3Cn3cccn3)n2)cc1 (configuration not stated),-15.5
23,CC(C)CCC(=O)NC(C)c1nnc2n1CCCCC2 (configuration not stated),-6.87
24,Cc1nc(CN(C)C2CCN(CCCOc3ccccc3)C2)no1 (configuration not stated),39.5

row,SMILES,cytotoxicity at 70.5 h [%]
1,CS(=O)(=O)N1CCC(NC(=O)COc2ccc(Cl)c(Cl)c2)CC1,-8.67
2,CN1CCC/C1=N\S(=O)(=O)c1ccc(NC(=O)c2cccs2)cc1,-2.28
3,Cc1cc(C)cc(OCC(=O)NC2CCN(S(C)(=O)=O)CC2)c1,23.8
4,Cc1cc(NC(=O)NCC(C)N2CCc3ccccc32)no1 (configuration not stated),-5.5
5,CC(C)NC(=O)Nc1ccc(CNCc2cccc(C#N)c2)cc1,-3.33
6,CCc1ccsc1C(=O)N1CCN(C(=O)CC(F)(F)F)CC1,3.81
7,CCOc1ncccc1NC(=O)NC1CCN(S(C)(=O)=O)CC1,20.6
8,CN(C(=O)CN1CCOC(Cn2cccn2)C1)c1nccs1 (configuration not stated),9.89
9,COC(=O)c1cccn1C1CCN(Cc2ccccc2)CC1,15.7
10,Cc1cnn(CC2CCCN2CC(=O)Nc2cc(C(C)(C)C)no2)c1 (configuration not stated),5.18
11,CCc1ccsc1C(=O)N1CCN(CC(O)CC)CC1 (configuration not stated),6.44
12,CCOc1ncccc1C(=O)N1CCCC1c1c(C)nn(C)c1OC (configuration not stated),1.14
13,Cc1cnn(CC2CCCN2C(=O)c2cc(Cl)ccc2F)c1 (configuration not stated),28.1
14,c1ncn(CC2CN(CC3CCCC3)CCO2)n1 (configuration not stated),0.357
15,O=C(NCc1nnc2n1CCCCC2)N1CCc2sccc2C1,-5.42
16,O=C(NCc1csc(Br)c1)c1ccc(=O)[nH]n1,-15.6
17,Cn1ccc(CN2CCC(CCc3ccc(O)cc3)CC2)cc1=O,-9.59
18,Cc1nc(CN2CCCC2c2ccsc2)nc2ccccc12 (configuration not stated),4.71
19,CCN1CCC(NC(=O)CN2CCc3c(ncn3C)C2)CC1,2.11
20,COc1c(CNC2CCc3cc(F)ccc32)c(C)nn1C (configuration not stated),-15.1
21,COc1c(CNCc2ccc(C(=O)NC3CC3)cc2)c(C)nn1C,-3.83
